Results reported in patent US6218384A, “3-Oxo-pyrido(1,2-a)benzimidazole-4-carboxyl and 4-oxo-azepino(1,2-a)benzimidazole-5-carboxyl derivatives useful in treating central nervous system disorders” (Ortho-McNeil Pharmaceutical, Inc., priority 1997, dated 2001).
Read-outs that look alike come from different tables or passages of the source.

Experiments:
[1] = Horizontal Screen Test for Determining Benzodiazepine Antagonism; format: in vivo, male CD1 mice; details: mice; given parenterally with chlordiazepoxide (28 mg/kg, sc); values above 0 considered active
Procedure: Some of the compounds of the invention were tested for their ability to antagonize the locomotor discoordinating property of chlordiazepoxide. Male CD1 mice, fasted for at least 16 hours but allowed access to water except during the period of observation, were placed on a horizontally-held screen (mesh size 1/4", wire diameter approximately 1.0 mm). The screen was inverted and mice which successfully climb to the top side of the screen within one minute were selected for testing. Selected mice were weighed and divided into equal groups. Test compounds or vehicle were administered to those mice parenterally at the same time as chlordrazepoxide (28 mg/kg, sc). At a pre-determined interval (or intervals) after administration, the animals were tested for their ability to climb to the top side of the inverted screen (pass the test). Activity is reported as the percent antagonism of the number of animals that fail the test in each treatment group relative to the corresponding chlordiazepoxide-treated group. Percent Antagonism =100×[(Percent Fail in Chlordiazepoxide Group)-(Percent Fail in Test Group)/Percent Fail in Chlordiazepoxide Group]. […] The percent antagonism values for the compounds of the present invention that were tested are as follows: CP 113=0, CP 53=0, CP 59=0,CP 102=0,[…],CP 7=17,CP 8=17,CP 9=30,CP 10=30, CP 11=92, CP 12=92, CP 13=100. Compounds having values above 0 were considered active as agents for treating drug overdoses, particularly overdoses of benzodiazepine.

[2] = Suppression of anxiety (punished licking, conflict test) in the adult male rat; format: in vivo, male rats
Procedure, shortened: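 Rats were deprived of water for 48 h and food for 24 h, with unpunished training the day before. Testing began at expected peak drug activity: 3-min session, every 20th lick punished by a 0.2-s shock.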

[3] = Suppression of metrazol-induced convulsions; format: in vivo, male CD1 mice; details: mice; for ED50: Mus musculus, 0.5 h
[4] = biological target: benzodiazepine site of the GABA-A receptor; test: Benzodiazepine Receptor Binding Assay (inhibition of 3H-flunitrazepam binding); details: ca. 3 nM 3H-flunitrazepam
[5] = Table 3, minimum effective dose, read-out: Conflict MED
[6] = Table 3, parenteral, clonic convulsions, read-out: Antimetrazol ED50
[7] = Table 1, ip, minimum effective dose, >10 = active dose not determined, read-out: Conflict (ip) MED
[8] = Table 1, ip, clonic convulsions after sc CD90 metrazol, >30 = active dose not determined, read-out: Metrazol (ip) ED50
[9] = Table 1, 25° C., 10-20 min, >10,000 = not active

Compound	percent antagonism [1] [%]	minimal effective dose [2, 7] [mg/kg]	ED50 [3, 8] [mg/kg]	IC50 [4, 9] [nM]	further results
CNC(=O)C1=C(O)CCn2c1nc1ccccc12 [CP 102, 1,2-Dihydro-3-hydroxy-N-methyl-pyrido(1,2-a)benzimidazole-4-carboxamide]	0				
O=C1CCN2C(=C1C(=O)Nc1ccc([N+](=O)[O-])cc1)Nc1ccccc12 [CP 9]	30				
O=C(NCc1ccncc1)C1=C(O)CCn2c1nc1ccccc12 [CP 59, 1,2-Dihydro-3-hydroxy-N-(4-pyridylmethyl)pyrido(1,2-a)benzimidazole-4-carboxamide]	0				
O=C(NC1CCCCC1)C1=C(O)CCn2c1nc1ccccc12 [CP 7, N-Cyclohexyl-1,2-dihydro-3-hydroxy-pyrido(1,2-a)benzimidazole-4-carboxamide]	17				
O=C(Nc1ccccc1F)C1=C(O)CCn2c1nc1cc(Cl)ccc12 [CP 113, 7-Chloro-1,2-dihydro-3-hydroxy-N-(2-fluorophenyl)-pyrido(1,2-a)benzimidazole-4-carboxamide]	0				
COc1ccc(NC(=O)C2=C(O)CCn3c2nc2cc(OC)ccc23)cc1 [CP 13, 1,2-Dihydro-3-hydroxy-7-methoxy-N-(4-methoxyphenyl)pyrido(1,2-a)benzimidazole-4-carboxamide]	100				
COc1ccc2c(c1)nc1n2CCC(O)=C1C(=O)Nc1ccccc1 [CP 12, 1,2-Dihydro-3-hydroxy-7-methoxy-N-(phenyl)pyrido(1,2-a)benzimidazole-4-carboxamide]	92				
CCN1C2=C(C(=O)Nc3ccncc3)C(=O)CCN2c2ccccc21 [compound 133]					minimal effective dose [2, 5]: 3 mg/kg; ED50 [3, 6]: 3 mg/kg; IC50 ([4]; Table 3): 80 nM
O=C1CCN2C(=C1C(=O)Nc1ccc3c(c1)CCN3)Nc1ccccc12 [compound 33]		10	> 30	54	
O=C1CCN2C(=C1C(=O)Nc1ccncc1)Nc1cc(F)ccc12 [compound 106]		3	3	42	
O=C1CCN2C(=C1C(=O)Nc1cccc(C(F)(F)F)c1)Nc1ccccc12 [compound 15]		> 10	> 10	300	
N-(2,4-Difluorophenyl)-4-oxo-1,2,3,4-tetrahydro-6H-azepino(1,2-a)benzimidazol-5-carboxamide [CP 155]				210	Conflict (ip) MED ([2]; Table 1, ip, minimum effective dose, >10 = active dose not determined): > 10 mg/kg; Metrazol (ip) ED50 ([3]; Table 1, ip, clonic convulsions after sc CD90 metrazol, >30 = active dose not determined, 30 min): 10 to 30 mg/kg
Cc1cc(NC(=O)C2=C3Nc4ccccc4N3CCC2=O)ccn1 [compound 100]		> 10	> 10	820	
Cc1cc(NC(=O)C2=C3Nc4ccccc4N3CCC2=O)on1 [compound 68]		> 10	> 10	54	
O=C1CCCN2C(=C1C(=O)Nc1ccccc1F)Nc1ccccc12 [compound 146]					minimal effective dose ([2]; Table 5, minimum effective dose, read-out: Conflict MED): 10 mg/kg; ED50 ([3]; Table 5, parenteral, clonic convulsions, read-out: Antimetrazol ED50): 1 to 10 mg/kg; IC50 ([4]; Table 5): 3.1 nM
O=C1CCN2C(=C1C(=O)Nc1cccc3cnccc13)Nc1ccccc12 [compound 65]		> 10	10	770	
O=C1CCN2C(=C1C(=O)Nc1cccc(Cl)c1)Nc1ccccc12 [compound 6]		> 10	> 30	120	
O=C1CCN2C(=C1C(=O)Nc1ccncc1Cl)Nc1ccccc12 [compound 75]		> 10	1 to 10	220	
O=C1CCN2C(=C1C(=O)Nc1ccccc1F)N(Cc1ccccc1)c1ccccc12 [compound 128]					minimal effective dose [2, 5]: > 10 mg/kg; ED50 [3, 6]: 1 mg/kg; IC50 ([4]; Table 3): 88 nM
CCN1C2=C(C(=O)Nc3ccccc3)C(=O)CCN2c2ccccc21 [compound 121]					minimal effective dose [2, 5]: < 1 mg/kg; ED50 [3, 6]: < 1 mg/kg; IC50 ([4]; Table 3): < 0.1 nM
O=C1CCN2C(=C1C(=O)Nc1nncs1)Nc1ccccc12 [compound 69]		> 10	> 10	300	
NS(=O)(=O)c1ccc(NC(=O)C2=C3Nc4ccccc4N3CCC2=O)cc1 [compound 61]		10	> 10	10000	
